# Measured values reported in patent publication US8927499B2, “Glycine derivative capable of inhibiting melanin formation and composition using the same” (Corum Inc., priority 2010, dated 2015).
# Where a SMILES comes first, the peptide text is derived from it. [ ]: non-standard residue; d: D form. Sar = CNCC(=O)O
# Experiments:
# [1] = Color stability test (accelerated, 45° C. oven); type: physicochemical
# Procedure: The test samples (compounds (II), (III), and (IV)) and the reference sample are separately dissolved in water and a buffer solution with pH=6 to prepare 0.5 wt % solutions. The buffer solution with pH=6 is a mixture solution of 3.8 ml 0.1M citric acid and 16.2 ml citrate. […] of a test sample are dissolved in the mixture solution to prepare a 0.5 wt % solution. Then, the solutions are placed in a 45° C. oven to perform an accelerated color stability test. After 14 and 28 days, the spectrophotometer is used to measure the light transmittance of these solutions at 440 nm.
# [2] = tested on: B16-F10 cells; experiment: Melanogenesis inhibition test; type: cell-based, Mus musculus; settings: 3 days, OD 405 nm, tyrosine + α-MSH stimulated
# Procedure: Melanogenesis Inhibition Test In the melanogenesis inhibition test, Kojic acid is used as the positive control. Compounds (II), (III), and (IV) and ascorbic acid derivative are evaluated regarding their whitening effect under a concentration of no cytotoxicity to test the melanogenesis inhibiting ability. B16-F10 B16-F10 cells are placed in a 96-well plate and each well comprises 5000 cells (5000 cells/well). The cells are incubated at 37° C. in 5% CO2 and 10% FBS DMEM (Fetal Bovine Serum Dulbecco's modified Eagle's medium) overnight to allow the cells to attach to the wells. Melanin production rate (%) is defined by the following equation: [formula] where ODT represents the optical density of the test sample at the wavelength 405 nm by the spectrophotometer; ODB represents the optical density of the blank control at 405 nm; ODN represents the optical density of the negative control at 405 nm. The negative control comprises 0.1 mg/ml of tyrosine and 1 μM of α-MSH (α-melanocyte stimulating hormone). The blank control comprises 0.1 mg/ml of tyrosine but no α-MSH. The test sample is prepared by stocking 5 wt % of compound (II), (III), or (IV) in phenol red free DMEM and 5 wt % FBS no phenol red DMEM with 0.1 mg/ml tyrosine and 1 μM α-MSH is prepared and filtered by a 0.22 μm filter. 0.1 mg/ml tyrosine may cause the medium over saturated and thus centrifugal filtration is required. The testing sample was prepared in the medium mentioned above. Until cells were at full confluence, they were treated with test samples and reference samples (prepared above) 100 μL each well for 3 days. After 3 days incubation, 100 μL 1N NaOH is added in each well. The solution is placed on a shaking table at least 10 minutes. The optical density of the test sample at 405 nm is measured. The positive control is Kojic acid (500 ppm concentration). Based on student's t-test, the P value is less than 0.05.
# [3] = tested on: 3T3 (Swiss albino mouse fibroblast) cells; experiment: Cytotoxicity test by MTT assay (3T3); type: cell-based; settings: 3T3 and B16-F10 cells, compared with ascorbic acid derivative known to have no apparent cytotoxicity
# Procedure: The cytotoxicity test is evaluated by MTT assay.
# [4] = 0.5 wt % aqueous solution, 14 days
# [5] = 0.5 wt % aqueous solution, 28 days
# [6] = 0.5 wt % in citric acid buffer solution pH = 6, 14 days
# [7] = 0.5 wt % in citric acid buffer solution pH = 6, 28 days
SMILES,"Transmittance % (440 nm) [1, 4]","Transmittance % (440 nm) [1, 5]","Transmittance % (440 nm) [1, 6]","Transmittance % (440 nm) [1, 7]",melanin production rate % ± standard deviation ([2]; sample concentration 0.2%),melanin production rate % ± standard deviation ([2]; sample concentration 0.4%),safety of using (cytotoxicity) [3]
O=C1O[C@H]([C@@H](O)CO)C(O)=C1O [Ascorbic acid],37.8%,20.8%,0.7%,2.1%,–,–,–
"CC(=O)NCC(=O)NCCC(=O)O [Compound (II), 3(2-acetylamino-acetylamino)-propionic acid]",98.9%,99.8%,99.4%,99.3%,64.7 ± 12.8%,11.0 ± 2.9%,the same as that of ascorbic acid derivative
"CC(=O)NCC(=O)NCCCC(=O)O [Compound (III), 4-(2-Acetylamino-acetylamino)-butyric acid]",99.6%,99.5%,100%,99.9%,70.4 ± 10.0%,14.2 ± 3.0%,the same as that of ascorbic acid derivative
"CC(=O)NCC(=O)N(C)CC(=O)O [Compound (IV), [(2-Acetylamino-acetyl)-methyl-amino]-acetic acid] (Ac-Gly-[Sar]-OH)",99.7%,100%,100%,100%,60.8 ± 22.3%,15.0 ± 5.6%,the same as that of ascorbic acid derivative
NCCC(=O)N[C@@H](Cc1cnc[nH]1)C(=O)O [carnosine],–,–,–,–,129 ± 1.7%,141 ± 10.5%,–

# Second part, led by results:
"Transmittance % (440 nm) [1, 4]","Transmittance % (440 nm) [1, 5]","Transmittance % (440 nm) [1, 6]","Transmittance % (440 nm) [1, 7]",SMILES,melanin production rate % ± standard deviation ([2]; sample concentration 0.2%),melanin production rate % ± standard deviation ([2]; sample concentration 0.4%),safety of using (cytotoxicity) [3]
94.9%,81%,34.8%,4.0%,O=c1cc(CO)occ1O [Kojic acid],–,–,–
96.7%,95.4%,–,–,OC[C@H]1O[C@@H](Oc2ccc(O)cc2)[C@H](O)[C@@H](O)[C@@H]1O [arbutin],–,–,–
97.8%,96.9%,–,–,"O=C1O[C@H]([C@@H](O)CO)C(O)=C1O[C@H]1O[C@H](CO)[C@@H](O)[C@H](O)[C@H]1O [ascorbic acid 2-glucoside (AA2G), ascorbic acid 2-glucoside]",86.8 ± 3.4%,76.2 ± 10.5%,–
–,–,85.6%,80.9%,O=C1O[C@H]([C@@H](O)CO)C(O)=C1OP(=O)([O-])[O-].[Mg+2] [ascorbic acid 2-phosphate magnesium],105.3 ± 3.4%,88.4 ± 11.4%,–
–,–,98.6%,97.5%,CCOC1=C(O)C(=O)O[C@@H]1[C@@H](O)CO [ethyl ascorbic acid],86.4 ± 2.6%,78.9 ± 6.3%,–
